Test results reported in US7485644B2, “N-{'4-substituted piperazine-1-sulfonylmethylalkyl}-n-hydroxyfomamide compounds as metalloproteinase inhibitors” (AstraZeneca AB, priority 2003, dated 2009).

Tested on: not given
Assay: not given
Conditions: not given

melting point [°C]	SMILES
129 to 133	O=CN(O)[C@@H](CCCc1ncccn1)CS(=O)(=O)N1CCN(c2ncc(OCC(F)(F)F)cn2)CC1 [Example 1, Hydroxy{(1S)-4-pyrimidin-2-yl-1-[({4-[5-(2,2,2-trifluoroethoxy)pyrimidin-2-yl]piperazin-1-yl}sulfonyl)methyl]butyl}formamide]
149 to 151	O=CN(O)[C@@H](CCc1ncccn1)CS(=O)(=O)N1CCN(c2ccc(OCC(F)(F)F)cn2)CC1 [Example 3, Hydroxy{(1S)-3-pyrimidin-2-yl-1-[({4-[5-(2,2,2-trifluoroethoxy)pyridin-2-yl]piperazin-1-yl}sulfonyl)methyl]propyl}formamide]
175 to 176	O=CN(O)[C@H](CS(=O)(=O)N1CCN(c2ccc(OC(F)(F)C(F)F)cc2)CC1)C1CCOCC1 [Example 4, Hydroxy[(1S)-2-({4-[4-(1,1,2,2-tetrafluoroethoxy)phenyl]piperazin-1-yl}sulfonyl)-1-(tetrahydro-2H-pyran-4-yl)ethyl]formamide]

Molecular target: T1, Collagenase 3 (MMP13) (Homo sapiens, UniProt P45452)
T1 construct: made in house
Assay: Collagenase 3 (MMP13) enzyme inhibition, fluorogenic peptide substrate
Format: biochemical
Conditions: recombinant human proMMP13 activated with APMA; 4-5 hours at 35° C., pH 7.5; fluorescence λex 328 nm, λem 393 nm; read-out: IC50 (nM), collagenase 3 (MMP13) inhibitory activity
Excerpt: The activity and selectivity of the compounds according to the invention may be determined using an appropriate enzyme inhibition test as described in WO 00/12478, WO 00/75108 and WO 01/62742. Collagenase 3 (MMP13) inhibitory activity may be assessed, for example, using the procedure set out below:—
Recombinant human proMMP13 may be expressed and purified as described by Knauper et al. [V. Knauper et al., (1996) The Biochemical Journal 271:1544-1550 (1996)]. The purified enzyme can be used to monitor inhibitors of activity as follows: purified proMMP13 is activated using 1 mM amino phenyl mercuric […] (APMA), 20 hours at 21° C.; the activated MMP13 (11.25 ng per assay) is incubated for 4-5 hours at 35° C. in assay buffer (0.1M Tris-HCl, pH 7.5 containing 0.1M NaCl, 20 mM CaCl2, 0.02 mM ZnCl and 0.05% (w/v) Brij 35 using the synthetic substrate 7-methoxycoumarin-4-yl)acetyl.Pro.Leu.Gly.Leu.N-3-(2,4-dinitrophenyl)-L-2,3-diaminopropionyl.Ala.Arg.NH2 in the presence or absence of inhibitors. Activity is determined by measuring the fluorescence at λex 328 nm and λem 393 nm. By measuring the activity at a range of concentrations, a binding curve can be generated from which the IC50 can be determined, this figure being the inhibitor concentration at which the enzyme activity is reduced by 50%.

IC50 [nM]	SMILES
2.8	CCC(CS(=O)(=O)N1CCN(c2ccc(OC(F)(F)C(F)F)cc2)CC1)N(O)C=O (racemic) [Example 7f]
0.24	O=CN(O)C(CCc1ncc(F)cn1)CS(=O)(=O)N1CCN(c2ccc(OCC(F)(F)F)cn2)CC1 (centres unmarked) [Example 2b]
13	O=CN(O)C(CS(=O)(=O)N1CCN(c2ncc(OCC(F)(F)F)cn2)CC1)C1CCOCC1 (centres unmarked) [Example 2f]
3.6	O=CN(O)C(CS(=O)(=O)N1CCN(c2ccc(OC(F)(F)C(F)F)cc2)CC1)c1ccccc1 (centres unmarked) [Example 5, Hydroxy[1-phenyl-2-({4-[4-(1,1,2,2-tetrafluoroethoxy)phenyl]piperazin-1-yl}sulfonyl)ethyl]formamide]
0.12	O=CN(O)C(CCCc1ncccn1)CS(=O)(=O)N1CCN(c2ccc(OC(F)(F)C(F)F)cc2)CC1 (centres unmarked) [Example 7a]
0.19	O=CN(O)C(CCc1ncc(F)cn1)CS(=O)(=O)N1CCN(c2ccc(OC(F)(F)C(F)F)cc2)CC1 (centres unmarked) [Example 7c]
1.5	O=CN(O)C(CCc1ncccn1)CS(=O)(=O)N1CCN(c2ccc(OCC(F)(F)F)cc2)CC1 (centres unmarked) [Example 8b]
4	O=CN(O)C(CS(=O)(=O)N1CCN(c2ccc(OCC(F)(F)F)cc2)CC1)C1CCOCC1 (centres unmarked) [Example 8g]
